How the values were obtained:
[1] = Rancimate assay, antioxidative capacity (Example 1); details: 0.1% w/w in soya oil; 120° C.; input of air 201/h
Procedure: The antioxidative capacity of substances I-9, I-10 and I-2 is determined in the so-called Rancimate assay. The comparative substances used are 4-t-butyl-1-cyclohexanol and tocopherol. The positive standard employed is BHT. The measurement parameter is the time duration (induction time) of the increase in the conductivity of unstabilised soya oil on exposure to air at elevated temperature. The longer the induction time, the greater the stabilising or antioxidant action. The following boundary conditions were maintained: input of air 201/h; temperature 120° C. and sample concentrations of 0.1% w/w each in soya oil. For each test substance, a relative antioxidation-protection factor is determined, which corresponds to the ratio of the induction times with and without test substance: […]

Echerichia coli = experiment: Antimicrobial action, microbe count (Example 6); assay type: cell-based; details: H2O (12% of ethanol); for Δlog: t24 h
Procedure: (§1) For sample preparation, the substances being investigated are each dissolved or homogeneously dispersed in an amount of 1.0% in a water/ethanol mixture (12% of ethanol) and subsequently diluted with bacteria suspension in the ratio 1 to 2. P. acnes (ATCC 6919) is pre-incubated under anaerobic conditions for 48 h at 35° C. on RMC agar (Merck 1.05410). A bacteria suspension having an optical density (OD) of about 1.5 is subsequently prepared in RMC broth (Merck 1.05411, double-concentrated). 150 μl of freshly prepared sample and 100 μl of paraffin are added to 150 μl of bacteria suspension per well. The optical density is determined over the course of time at 37° C. using a Bioscreen C™ analyser compared with the negative control (=vehicle without test substance). Compared with the negative control, reduced optical densities confirm growth-inhibiting substance actions.
(§2) For sample preparation, the substances being investigated are each dissolved or homogeneously dispersed in an amount of 1.0% in a water/ethanol mixture (12% of ethanol) (=sample). A bacteria suspension of S. epidermidis (ATCC 12228) having an optical density of 1.0 in CASO broth (Merck 1.05459) is diluted 1:10000 with CASO broth. 500 μl of sample are added to 500 μl of bacteria suspension, and the mixture is incubated at 35° C. for 24 h. After the incubation, the test batches are diluted to −6 in 10 unit steps, and 0.1 ml of each is plated-out on CASO agar (Merck 1.05458) and incubated at 35° C. for 24 h.
(§3) In order to determine the initial microbe count, 0.1 ml of the bacteria suspension used are plated-out on CASO agar (Merck 1.05458) and incubated at 35° C. for 24 h.
(§4) The colonies are subsequently counted, and the microbe count per ml is determined compared with the negative control (12% of ethanol in water).
(§5) The procedure corresponds to that described in Examples 4 and 5 using the microorganisms shown below. The concentrations indicated are the final use concentrations. In order to prepare the stock solution, double the final concentration were prepared in the solvent indicated. This was subsequently diluted 1:2 with the corresponding microbe suspension. In the case of Aspergillus brasiliensis, the microbe count determination was exceptionally carried out after 48 h.

[2] = tested on: S. epidermidis (ATCC 12228); experiment: Growth inhibition by optical density, Bioscreen C (Example 3); assay type: cell-based, Staphylococcus epidermidis; details: 1.0% sample in water/ethanol (12% of ethanol) diluted 1 to 2 with bacteria suspension, 37° C.
Procedure: For sample preparation, the substances being investigated are each dissolved or homogeneously dispersed in an amount of 1.0% in a water/ethanol mixture (12% of ethanol) and subsequently diluted with bacteria suspension in the ratio 1 to 2. S. epidermidis (ATCC 12228) is pre-incubated under aerobic conditions for 24 h at 35° C. on CASO agar (Merck 1.05458). A bacteria suspension having an optical density (OD) of about 1.0 is subsequently prepared in CASO broth (Merck 1.05459, double-concentrated) and diluted again 1:10 in CASO broth. 150 μl of freshly prepared sample are added to 150 μl of bacteria suspension per well. The optical density is determined over the course of time at 37° C. using a Bioscreen C™ analyser compared with the negative control (=vehicle without test substance). Compared with the negative control, reduced optical densities confirm growth-inhibiting substance actions
(§6) Result as optical density of the bacteria suspension after an exposure time of 20 hours: […]

Candida albicans = experiment: Antimicrobial action, microbe count (Example 6); assay type: cell-based; details: for Δlog: t24 h
Procedure: as §2, §3, §4, §5

[3] = tested on: S. epidermidis (ATCC 12228); experiment: Microbe count determination, bacteriostatic or bactericidal action (Example 5); assay type: cell-based, Staphylococcus epidermidis; details: 24 h at 35° C.; for Final microbe count: 1.0% sample in 12% ethanol, 500 μl + 500 μl bacteria suspension, initial count 3.8 × 10^4, negative control 5.0 × 10^7; for Note: bacteriostatic or bactericidal action: S. epidermidis
Procedure: as §2, §3, §4

Serratia marcescens = experiment: Antimicrobial action, microbe count (Example 6); assay type: cell-based; details: conc. 0.5%, H2O (12% of ethanol), count t0 6.8 × 10^4
Procedure: as §1, §2, §3, §4, §5

Staphylococcus aureus = experiment: Antimicrobial action, microbe count (Example 6); assay type: cell-based; details: conc. 0.5%, H2O (12% of ethanol); for Δlog: t24 h
Procedure: as §1, §2, §3, §4, §5

[4] = tested on: Staphylococcus epidermidis; experiment: Antimicrobial action, microbe count (Example 6); assay type: cell-based; details: conc. 0.5%, H2O (12% of ethanol), count t0 3.4 × 10^4
Procedure: as §1, §2, §3, §4, §5

Aspergillus brasiliensis = experiment: Antimicrobial action, microbe count (Example 6); assay type: cell-based; details: H2O (12% of ethanol); for Δlog: count after 48 h; for Microbe count t24 h: count carried out after 48 h
Procedure: as §1, §2, §3, §4, §5

Propionibacterium acnes = experiment: Antimicrobial action, microbe count (Example 6); assay type: cell-based; details: for Δlog: t24 h
Procedure: as §1, §2, §3, §4, §5

Pseudomonas aeruginosa = experiment: Antimicrobial action, microbe count (Example 6); assay type: cell-based; details: conc. 0.5%, H2O (12% of ethanol), count t0 6.8 × 10^4
Procedure: as §1, §2, §3, §4, §5

Salmonella enterica = experiment: Antimicrobial action, microbe count (Example 6); assay type: cell-based; details: H2O (12% of ethanol); for Δlog: t24 h
Procedure: as §1, §2, §3, §4, §5

Corynebacterium xerosis = experiment: Antimicrobial action, microbe count (Example 6); assay type: cell-based; details: for Δlog: t24 h
Procedure: as §1, §2, §3, §4, §5

P. acnes (ATCC 6919) = experiment: Growth inhibition by optical density, Bioscreen C (Example 4); assay type: cell-based, Propionibacterium acnes; details: 1.0% sample in water/ethanol (12% of ethanol) diluted 1 to 2 with bacteria suspension; 37° C.; negative control 1.0
Procedure: as §1, §6

[5] = Densities and viscosities, Ubbelohde viscometer, to estimate spreadability (Example 10); assay type: physicochemical; details: 25° C.
Procedure: Measurement of the Dynamic Viscosities in Order to Estimate the Spreadability at 25° C. After measurement of the densities and kinematic viscosities using an Ubbelohde viscometer, the following dynamic viscosities arise: Since spreadabilities and viscosities of cosmetic emollients correlate well, good spreadabilities can be concluded from the viscosities determined.

Malassezia furfur = experiment: Antimicrobial action, microbe count (Example 6); assay type: cell-based; details: conc. 1.0%, H2O, count t0 4.0 × 10^2
Procedure: as §1, §2, §3, §4, §5

[6] = conc. 0.2%, count t0 6.3 × 10^4
[7] = 2nd experiment, negative control 0.65
[8] = conc. 0.5%, H2O (12% of ethanol), count t0 3.4 × 10^4
[9] = conc. 0.5%, H2O, count t0 3.8 × 10^5
[10] = conc. 0.5%, count t0 2.0 × 10^4
[11] = conc. 0.5%, H2O (12% of ethanol), count t0 2.0 × 10^4
[12] = conc. 0.5%, count t0 4.6 × 10^4
[13] = conc. 0.5%, count t0 6.0 × 10^4
[14] = conc. 0.125%, H2O, count t0 1.0 × 10^6
[15] = conc. 0.5%, H2O (12% of ethanol), count t0 3.5 × 10^4
[16] = conc. 1.0%, H2O (12% of ethanol), count t0 6.0 × 10^3
[17] = conc. 1.0%, count t0 8.0 × 10^2
[18] = conc. 1.0%, H2O, count t0 7.8 × 10^5
[19] = conc. 0.8%, count t0 6.3 × 10^4
[20] = conc. 0.8%, count t0 1.3 × 10^4
[21] = conc. 0.5%, H2O, count t0 1.0 × 10^6

Q: With `CC(C)(C)C1CCC(O)CC1` (stereo not drawn) [4-t-butyl-1-cyclohexanol, reference compound] as the compound, how does the “Antioxidation-protection factor (ratio of the induction times with and without test substance)” value [1] read?
A: 1.05

Q: With `COC(=O)c1ccc(O)cc1` [Methylparaben, methylparaben, reference compound] as the compound, how does the “Microbe count t24 h” value (Echerichia coli; [6]) read?
A: 4.8 × 10^3

Q: And the Δlog (Echerichia coli; [6])?
A: −1.12

Q: What does the source list for `CCCCC(CC)COC(=O)C1CCCCC1O` (stereo not drawn) [Substance I-9, 2-hydroxycyclohexanecarboxylic acid 2-ethylhexyl ester]?
A: OD20h, optical density of the bacteria suspension after 20 hours [2, 7]: 0.30; Microbe count t24 h (Candida albicans; [8]): 1.5 × 10^1; Δlog (Candida albicans; [8]): −3.36; Microbe count t24 h (Candida albicans; [9]): 8.0 × 10^6; Δlog (Candida albicans; [9]): +1.32; Final microbe count [3]: 2.0 × 10^3 CFU/ml; Note: bacteriostatic or bactericidal action [3]: bacteriostatic; Antioxidation-protection factor (ratio of the induction times with and without test substance) [1]: 1.12; Microbe count t24 h (Serratia marcescens): 9.0 × 10^3; Δlog (Serratia marcescens; t24 h): −0.88; Microbe count t24 h (Staphylococcus aureus; count t0 4.2 × 10^4): 1.4 × 10^2; Δlog (Staphylococcus aureus; count t0 4.2 × 10^4): −2.48; Microbe count t24 h [4]: 6.0 × 10^3; Δlog ([4]; t24 h): −0.75; Δlog (Aspergillus brasiliensis; [10]): −1.40; Microbe count t24 h (Aspergillus brasiliensis; [10]): 8.0 × 10^2; Microbe count t24 h (Propionibacterium acnes; [11]): 8.0 × 10^2; Δlog (Propionibacterium acnes; [11]): −1.40; Microbe count t24 h (Echerichia coli; [12]): 3.8 × 10^2; Δlog (Echerichia coli; [12]): −2.08; Microbe count t24 h (Pseudomonas aeruginosa): 9.0 × 10^3; Δlog (Pseudomonas aeruginosa; t24 h): −0.88; Microbe count t24 h (Salmonella enterica; [13]): 1.8 × 10^4; Δlog (Salmonella enterica; [13]): −0.52; Microbe count t24 h (Corynebacterium xerosis; [14]): 5.0 × 10^6; Δlog (Corynebacterium xerosis; [14]): +0.70; Microbe count t24 h (Corynebacterium xerosis; [15]): 0; Δlog (Corynebacterium xerosis; [15]): −4.54; OD20h, optical density of the bacteria suspension after 20 hours (P. acnes (ATCC 6919)): 0.50; Density [5]: 0.9752 g/mL; Dynamic viscosity (kinematic viscosity × density) [5]: 32.2 mPas; Kinematic viscosity ([5]; Ubbelohde viscometer): 33.0 mm^2/s

Q: For `CC1CC(OC(=O)C2CCCCC2O)CC(C)(C)C1` (stereo not drawn) [Substance I-10, 2-hydroxycyclohexanecarboxylic acid 3,3,5-trimethylcyclohexyl ester], which “OD20h, optical density of the bacteria suspension after 20 hours” value (“OD20h, optical density” below) ([2]; 1st experiment, negative control 0.80) is on record?
A: 0.30

Q: And the Final microbe count [3]?
A: 2.0 × 10^3 CFU/ml

Q: And the “Note: bacteriostatic or bactericidal action” value [3]?
A: bacteriostatic

Q: And the “Antioxidation-protection factor (ratio of the induction times with and without test substance)” value [1]?
A: 1.14

Q: And the “OD20h, optical density” value (P. acnes (ATCC 6919))?
A: 0.45

Q: Which “OD20h, optical density” value [2, 7] does the source give for `CCCCOC(=O)C1CCC(O)CC1` (stereo not drawn) [Substance I-20, 4-hydroxycyclohexanecarboxylic acid butyl ester] here?
A: 0.20

Q: What about the “Microbe count t24 h” value (Candida albicans; [9]) of the same compound?
A: 0

Q: And the Δlog (Candida albicans; [9])?
A: −5.58

Q: What about the “Microbe count t24 h” value (Candida albicans; [16]) of the same compound?
A: 0

Q: And the Δlog (Candida albicans; [16])?
A: −3.78

Q: And the Final microbe count [3]?
A: 0 CFU/ml

Q: What about the “Note: bacteriostatic or bactericidal action” value [3] of the same compound?
A: bactericidal

Q: And the “Microbe count t24 h” value (Staphylococcus aureus; count t0 1.1 × 10^4)?
A: 0

Q: What about the Δlog (Staphylococcus aureus; count t0 1.1 × 10^4) of the same compound?
A: −4.04

Q: What about the Δlog (Aspergillus brasiliensis; [17]) of the same compound?
A: −0.60

Q: What about the “Microbe count t24 h” value (Aspergillus brasiliensis; [17]) of the same compound?
A: 2.0 × 10^2

Q: And the “Microbe count t24 h” value (Propionibacterium acnes; [18])?
A: 1.3 × 10^4

Q: What about the Δlog (Propionibacterium acnes; [18]) of the same compound?
A: −1.78

Q: What about the “Microbe count t24 h” value (Echerichia coli; [19]) of the same compound?
A: 0

Q: What about the Δlog (Echerichia coli; [19]) of the same compound?
A: −4.80

Q: What about the “Microbe count t24 h” value (Malassezia furfur) of the same compound?
A: 0

Q: What about the Δlog (Malassezia furfur; t24 h) of the same compound?
A: −2.60

Q: What about the “Microbe count t24 h” value (Salmonella enterica; [20]) of the same compound?
A: 0

Q: What about the Δlog (Salmonella enterica; [20]) of the same compound?
A: −4.11

Q: And the “Microbe count t24 h” value (Corynebacterium xerosis; [21])?
A: 0

Q: What about the Δlog (Corynebacterium xerosis; [21]) of the same compound?
A: −6.00

Q: What about the “OD20h, optical density” value (P. acnes (ATCC 6919)) of the same compound?
A: 0.70

Q: For tocopherol [reference compound], which “Antioxidation-protection factor (ratio of the induction times with and without test substance)” value [1] is on record?
A: 1.00
